Patent US9434733B2, “PDE9 inhibitors with imidazo triazinone backbone” (H. Lundbeck A/S, priority 2012, dated 2016)
pIC50: −log10 of the molar value.

Biological target: PDE9 (Homo sapiens (Human), UniProt O76083)
Assay: PDE9 inhibition assay
Assay type: biochemical
Conditions: 10 nM 3H-cAMP, 1 hour incubation, yttrium silicate SPA beads; read-out: PDE9_IC50
Procedure: Reactions are initiated by addition of the cyclic nucleotide substrate, and reactions are allowed to proceed for one hr at room temperature before being terminated through mixing with 15 uL 8 mg/mL yttrium silicate SPA beads (Amersham).
Following a 1 hour incubation the reactions were terminated by addition of 15 uL 8 mg/mL yttrium silicate SPA beads (Amersham). […] IC50 values were calculated by non linear regression using XLfit (IDBS).

Chain of PDE9 (O76083 whole entry): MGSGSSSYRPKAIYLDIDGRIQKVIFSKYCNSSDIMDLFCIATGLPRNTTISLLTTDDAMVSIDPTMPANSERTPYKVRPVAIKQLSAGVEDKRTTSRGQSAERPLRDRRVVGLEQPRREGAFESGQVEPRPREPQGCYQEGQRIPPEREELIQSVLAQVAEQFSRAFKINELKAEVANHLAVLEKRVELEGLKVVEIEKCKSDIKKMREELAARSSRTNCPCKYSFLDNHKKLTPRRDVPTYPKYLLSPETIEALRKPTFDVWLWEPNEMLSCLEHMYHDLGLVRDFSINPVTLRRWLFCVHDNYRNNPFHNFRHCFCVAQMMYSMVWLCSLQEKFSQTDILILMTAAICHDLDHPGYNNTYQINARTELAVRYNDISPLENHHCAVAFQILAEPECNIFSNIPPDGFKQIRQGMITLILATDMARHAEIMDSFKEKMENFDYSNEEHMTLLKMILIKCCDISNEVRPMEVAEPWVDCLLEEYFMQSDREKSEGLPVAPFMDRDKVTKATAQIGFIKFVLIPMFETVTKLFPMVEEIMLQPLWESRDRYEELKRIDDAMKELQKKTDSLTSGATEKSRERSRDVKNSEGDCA

pIC50: 6.46
SMILES: O=c1[nH]c(CN2CC(Oc3cccnc3)C2)nn2c(C3CCOCC3)ncc12 [2-[[3-(3-pyridyloxy)azetidin-1-yl]methyl]-7-tetrahydropyran-4-yl-3H-imidazo[5,1-f][1,2,4]triazin-4-one]
